Assay results taken from the supplement of paper PMC10307832.

Columns and labels:
Test in all cases: relative viability (nuclei count vs DMSO), 5 days (fraction); higher = more cells survive
IPA-3 + Phenformin = compound: C1=CC=C2C(=C1)C=CC(=C2SSC3=C(C=CC4=CC=CC=C43)O)O [IPA-3] + N=C(N)NC(=N)NCCc1ccccc1 [Phenformin] (partner 250 µM)
Outline: (§1)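 Five library-drug doses in √10 steps were combined with a fixed anchor-drug dose, or a single drug was given alone, by pin tool to lung cancer cell lines in 1536-well plates the day after seeding. Nuclei were stained and counted after 5 days. Relative viability is the nuclei count in treated wells over that in vehicle wells, taken as the median of duplicate plates.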

Doramapimod + Lapatinib = compound: Cc1ccc(-n2nc(C(C)(C)C)cc2NC(=O)Nc2ccc(OCCN3CCOCC3)c3ccccc23)cc1 [Doramapimod] + CS(=O)(=O)CCNCc1ccc(-c2ccc3ncnc(Nc4ccc(OCc5cccc(F)c5)c(Cl)c4)c3c2)o1 [Lapatinib] (partner 2 µM)
Outline: as §1

RAF265 + Phenformin = compound: Cn1c(Nc2ccc(C(F)(F)F)cc2)nc2cc(Oc3ccnc(-c4ncc(C(F)(F)F)[nH]4)c3)ccc21 [RAF265] + N=C(N)NC(=N)NCCc1ccccc1 [Phenformin] (partner 250 µM)
Outline: as §1

RAF265 + Olaparib = compound: Cn1c(Nc2ccc(C(F)(F)F)cc2)nc2cc(Oc3ccnc(-c4ncc(C(F)(F)F)[nH]4)c3)ccc21 [RAF265] + O=C(c1cc(Cc2n[nH]c(=O)c3ccccc23)ccc1F)N1CCN(C(=O)C2CC2)CC1 [Olaparib] (partner 8 µM)
Outline: as §1

Cell Line | relative viability (IPA-3 + Phenformin; first compound 0.2 µM) | relative viability (IPA-3 + Phenformin; first compound 0.6325 µM) | relative viability (IPA-3 + Phenformin; first compound 2 µM) | relative viability (IPA-3 + Phenformin; first compound 6.325 µM) | relative viability (IPA-3 + Phenformin; first compound 20 µM) | relative viability (Doramapimod + Lapatinib; first compound 0.02 µM) | relative viability (Doramapimod + Lapatinib; first compound 0.06325 µM) | relative viability (Doramapimod + Lapatinib; first compound 0.2 µM) | relative viability (Doramapimod + Lapatinib; first compound 0.6325 µM) | relative viability (Doramapimod + Lapatinib; first compound 2 µM) | relative viability (RAF265 + Phenformin; first compound 0.01 µM) | relative viability (RAF265 + Phenformin; first compound 0.03162 µM) | relative viability (RAF265 + Phenformin; first compound 0.1 µM) | relative viability (RAF265 + Phenformin; first compound 0.3162 µM) | relative viability (RAF265 + Phenformin; first compound 1 µM) | relative viability (RAF265 + Olaparib; first compound 0.01 µM) | relative viability (RAF265 + Olaparib; first compound 0.03162 µM) | relative viability (RAF265 + Olaparib; first compound 0.1 µM) | relative viability (RAF265 + Olaparib; first compound 0.3162 µM) | relative viability (RAF265 + Olaparib; first compound 1 µM)
NCI-H838 | 0.857 | 0.576 | 0.524 | 0.517 | 0.666 | 0.982 | 0.996 | 1.19 | 1.27 | 0.843 | 0.733 | 0.606 | 0.521 | 0.499 | 0.517 | 0.829 | 0.725 | 0.752 | 0.694 | 0.594
NCI-H1355 | 0.471 | 0.448 | 0.476 | 0.44 | 0.482 | 0.972 | 0.992 | 0.964 | 0.95 | 0.952 | 0.432 | 0.434 | 0.41 | 0.309 | 0.332 | 0.814 | 0.732 | 0.694 | 0.608 | 0.31
NCI-H1395 | 0.46 | 0.431 | 0.446 | 0.479 | 0.469 | 1.38 | 1.13 | 1.05 | 0.913 | 0.818 | 0.438 | 0.444 | 0.423 | 0.409 | 0.387 | 0.478 | 0.431 | 0.434 | 0.49 | 0.46
NCI-H1437 | 0.41 | 0.294 | 0.328 | 0.394 | 0.304 | 0.805 | 0.905 | 0.837 | 0.898 | 0.723 | 0.352 | 0.388 | 0.287 | 0.329 | 0.242 | 0.644 | 0.611 | 0.653 | 0.619 | 0.561
NCI-H1650 | 0.564 | 0.346 | 0.424 | 0.512 | 0.364 | 0.665 | 0.736 | 0.795 | 0.247 | 0.786 | 0.55 | 0.438 | 0.49 | 0.333 | 0.361 | 0.9 | 0.797 | 0.824 | 0.837 | 0.826
NCI-H1651 | 0.341 | 0.317 | 0.364 | 0.339 | 0.31 | 0.878 | 0.791 | 0.864 | 0.99 | 0.781 | 0.369 | 0.334 | 0.316 | 0.294 | 0.295 | 0.187 | 0.17 | 0.194 | 0.185 | 0.167
NCI-H1666 | 0.654 | 0.552 | 0.547 | 1.04 | 0.469 | 0.814 | 0.702 | 0.654 | 0.637 | 0.68 | 0.597 | 0.343 | 0.567 | 0.579 | 0.559 | 0.806 | 0.746 | 0.707 | 0.786 | 0.703
NCI-H1734 | 0.394 | 0.371 | 0.371 | 0.412 | 0.368 | 1.27 | 0.963 | 0.932 | 1.04 | 0.928 | 0.458 | 0.376 | 0.32 | 0.317 | 0.257 | 0.627 | 0.574 | 0.575 | 0.511 | 0.344
NCI-H1755 | 0.675 | 0.582 | 0.622 | 0.612 | 0.557 | 0.6 | 1.04 | 1.05 | 1.08 | 1.03 | 0.612 | 0.59 | 0.571 | 0.459 | 0.432 | 0.879 | 0.788 | 0.909 | 0.717 | 0.499
NCI-H1792 | 0.371 | 0.44 | – | – | 0.408 | 0.898 | 0.986 | 0.909 | 0.859 | 0.858 | 0.394 | 0.182 | 0.186 | 0.0818 | 0.0945 | 0.474 | 0.291 | 0.279 | 0.262 | 0.0641
NCI-H1793 | 0.509 | 0.317 | 0.334 | 0.458 | 0.545 | 0.514 | 0.89 | 0.515 | 0.678 | 0.82 | 0.352 | 0.351 | 0.298 | – | 0.262 | 0.898 | 0.755 | 0.724 | 0.382 | 0.268
NCI-H1915 | 0.388 | 0.36 | 0.371 | 0.338 | 0.389 | 0.973 | 1.1 | 1.01 | 0.995 | 0.844 | 0.364 | 0.341 | 0.265 | 0.203 | 0.183 | 0.256 | 0.248 | 0.235 | 0.224 | 0.136
NCI-H1944 | 0.212 | 0.186 | 0.189 | 0.219 | 0.176 | 0.761 | 0.823 | 0.722 | 0.963 | 0.585 | 0.192 | 0.202 | 0.184 | 0.168 | 0.143 | 0.43 | 0.44 | 0.385 | 0.361 | 0.26
NCI-H1975 | 0.43 | 0.385 | 0.43 | 0.429 | 0.381 | 0.937 | 0.947 | 0.898 | 1.23 | 0.901 | 0.386 | 0.343 | 0.284 | 0.251 | 0.205 | 0.707 | 0.552 | 0.522 | 0.308 | 0.305
NCI-H1993 | 0.467 | 0.515 | 0.538 | 0.547 | 0.514 | 0.792 | 0.728 | 0.774 | 1.03 | 0.877 | 0.455 | 0.586 | 0.502 | 0.603 | 0.479 | 1.21 | 1.41 | 1.19 | 1.07 | 0.886
